Test results as given in patent publication US20120214846A1, “HEXAHYDROCYCLOPENTYL[F]INDAZOLE PYRIDYL ETHANOLS AND DERIVATIVES THEREOF AS SELECTIVE GLUCOCORTICOID RECEPTOR MODULATORS” (MERCK SHARP & DOHME CORP, priority 2009, published 2012).
Converted amounts (≈) assume the structure as drawn. Where two headings read alike, the source gives them in different places.

How the values were obtained:
GR [1] = molecular target: T1, GR (Homo sapiens, UniProt P04150); assay: Trans-Activation Modulation of Glucocorticoid Receptor Assay (GRAMMER), MMTV-LUC reporter, A549 cells; type: cell-based; set-up: endogenous in cells
T1 sequence (P04150 1-777): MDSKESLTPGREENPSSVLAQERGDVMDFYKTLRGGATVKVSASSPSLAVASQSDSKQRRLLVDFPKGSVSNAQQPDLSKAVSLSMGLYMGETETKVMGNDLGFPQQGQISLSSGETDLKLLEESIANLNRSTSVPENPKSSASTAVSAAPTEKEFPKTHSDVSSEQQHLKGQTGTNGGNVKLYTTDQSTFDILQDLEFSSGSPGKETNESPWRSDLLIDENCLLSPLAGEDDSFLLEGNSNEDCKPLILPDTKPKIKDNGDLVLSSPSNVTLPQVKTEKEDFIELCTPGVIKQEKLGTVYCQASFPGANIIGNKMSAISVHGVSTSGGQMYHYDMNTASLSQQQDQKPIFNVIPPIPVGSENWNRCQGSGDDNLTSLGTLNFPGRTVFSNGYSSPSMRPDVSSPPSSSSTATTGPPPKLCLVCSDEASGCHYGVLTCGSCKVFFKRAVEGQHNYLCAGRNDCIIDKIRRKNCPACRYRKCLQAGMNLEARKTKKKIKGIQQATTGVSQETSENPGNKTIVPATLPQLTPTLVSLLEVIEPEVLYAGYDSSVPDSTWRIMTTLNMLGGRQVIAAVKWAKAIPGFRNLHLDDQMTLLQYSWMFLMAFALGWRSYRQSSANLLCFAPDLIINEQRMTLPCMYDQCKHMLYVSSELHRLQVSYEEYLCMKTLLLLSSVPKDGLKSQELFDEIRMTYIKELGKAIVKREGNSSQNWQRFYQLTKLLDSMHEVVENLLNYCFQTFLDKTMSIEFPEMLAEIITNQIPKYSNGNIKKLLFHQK
Description: Trans-Activation Modulation of Glucocorticoid Receptor Assay
This assay assesses the ability of test compounds to control transcription from the MMTV-LUC reporter gene in lung adenocarcinoma A549 cells or HeLa cells, a human […] cell line that naturally expresses the human GR. The assay measures induction of a modified MMTV LTR/promoter linked to the LUC reporter gene.
The routine transient assay consists of plating 7,000-25,000 cells/well of a white, clear-bottom 96-well plate. Alternatively, 384-well plates can be used at a cell concentration of 10,000/well. The media that the cells are plated in is “exponential growth medium” which consists of phenol red-free RPMI1640 containing 10% FBS, 4 mM L-glutamine, 20 mM HEPES, 10 ug/mL human insulin, and 20 ug/mL gentamicin. Incubator conditions are 37° C. and 5% CO2. The transfection is done in batch mode. The cells are trypsinized and counted to the right cell number in the proper amount of fresh media. It is then gently mixed with the FuGene6/DNA mix and plated onto the 96 or 384-well plate, all the wells receive 100 uL or 40 uL, respectively, of medium+lipid/DNA complex then incubated 37° C. overnight. The transfection cocktail consists of serum-free OptiMEM, FuGene6 reagent and DNA. The manufacturer's (Roche Biochemical) protocol for cocktail setup is as follows: The lipid to DNA ratio is approximately 2.5:1 and the incubation time is 20 min at room temperature. Sixteen to 24 hours after transfection, the cells are treated with dexamethasone to a final concentration of 10 nM as well as the compound of interest, such that final DMSO (vehicle) concentration is equal to or less than 1%. Each plate also contains samples that are treated with 10 nM dexamethasone alone, which is used as the 100% activity control. The cells are exposed to the compounds for 24 hours. After 24 hours, the cells are lysed by a Promega cell culture lysis buffer for approximately 30 min and then the luciferase activity in the extracts is assayed in the 96-well format luminometer. In 384-well format, Steady-Glo (Promega) or Steady-Lite (PerkinElmer) can be used by adding an equal volume of reagent to the media present in each well. […] Antagonist activity is calculated by determining the decrease in dexamethasone-induced activity in response to compound treatment relative to samples that were treated with dexamethasone alone. […] This transactivation assay can be performed in an agonist and antagonist mode to identify these different activities.
The action of compounds is also tested in an antagonist mode (Anti-GRAMMER) in which the cells are treated with medium containing an agonist such as 10 nM DEX and the ability to agents to inhibit the activation by an agonist is measured.

GR [2] = molecular target: T1, GR; assay: Transrepression Assay (GITAR), TNFα-β-lactamase reporter, U937 cells; type: cell-based; set-up: U937 cells contain an endogenous glucocorticoid receptor (GR); endogenous in cells; host or cells: U937 cells stably transfected with the TNF-alpha promoter beta-lactamase reporter
Description: This assay assesses the ability of test compounds to control transcription from the TNFα-β-lactamase reporter gene in U937 cells, a human myelomonocytic leukemia cell line that naturally expresses the human GR. The assay measures compound dependent-repression of the TNFa promoter linked to a reporter gene.
The human U937 cells that had been stablely transfected with the TNF-α promoter driving […] are used for this assay. U937 cells contain an endogenous glucocorticoid receptor (GR). […] 50,000 cells/well are plated in 96 well black-walled plates the day of assay. Test compounds are added 10 μL/well, and cells are incubated at 37° C. for 30˜45 min. For assaying compounds, first dilute 1:10 in DMSO to make 1 mM, then further dilute 1:100 in medium to make 10× stock prior to adding to the cells. Add 50 ng/ml PMA (Sigma, cat#P8139) 10 μL/well to a final concentration 5 ng/ml, and 1 μg/ml LPS (Sigma, cat#L4130) 10 μL/well to a final concentration 100 ng/ml. Incubate cells at 37° C. overnight for ˜18 hr. PMA is stored frozen as 100 μg/ml stock in DMSO. Dilute 1:10 in DMSO for a working stock of […] and store at −20 C. For assaying, dilute the 10 μg/ml working stock 1:200 in medium to make a 10× solution (50 ng/ml). Store frozen LPS at 1 mg/ml in PBS, dilute 1:1000 in medium to make 10× (1 μg/ml) for the assay. Add 6× loading buffer (CCF2-AM) 20 μL/well, and incubate at room temperature for 70˜90 min. […] The activity repressed by 100 nM dexamethasone alone is set as 100% activity.

Solubility at pH 2 = type: physicochemical
[3] = A549 cells, inflection point, read-out: Transactivation A549 Cells GRAMMER IP
[4] = A549 cells, relative to 300 nM dexamethasone
[5] = U937 cells, inflection point, read-out: Transrepression U937 Cells GITAR IP
[6] = U-937, U937 cells, activity repressed by 100 nM dexamethasone set as 100%, read-out: Transrepression U937 Cells GITAR Emax
[7] = pH 2, aqueous buffer, pH 2, read-out: Solubility At pH 2
[8] = U937 cells, activity repressed by 100 nM dexamethasone set as 100%
[9] = A549, A549 cells, relative to 300 nM dexamethasone, read-out: Transactivation A549 Cells GRAMMER Emax
[10] = pH 2, read-out: Solubility At pH 2

| Transrepression U937 Cells GITAR Emax (GR [2]; [8]) [%] | solubility (Solubility at pH 2; [10]) [µM] | Compound | EC50 (GR [1]; [3]) [µM] | Transactivation A549 Cells GRAMMER Emax (GR [1]; [4]) [%] | EC50 (GR [2]; [5]) [µM] | Emax (GR [2]; [6]) [%] | solubility (Solubility at pH 2; [7]) [µM] | Emax (GR [1]; [9]) [%] | Emax (GR [1]; A549, Table 4, literature compounds, read-out: GRAMMER EMAX) [%] | EC50 (GR [1]; Table 4, literature compounds, read-out: GRAMMER IP) [µM] | EC50 (GR [2]; Table 4, literature compounds, read-out: GITAR IP) [µM] | Emax (GR [2]; U-937, Table 4, literature compounds, read-out: GITAR EMAX) [%] | solubility (Solubility at pH 2; Table 4, literature compounds) |
| --- | --- | --- | --- | --- | --- | --- | --- | --- | --- | --- | --- | --- | --- |
| – | – | Cc1cccnc1C(O)C[C@]1(O)CCC2=Cc3c(cnn3-c3ccc(F)cc3)C[C@@]21C (single isomer, unassigned) [Example 1a] | 0.116 | 64.8 | 0.0952 | 71.3 | 148 (≈ 62.1 µg/mL) | – | – | – | – | – | – |
| – | – | C[C@]12Cc3cnn(-c4ccc(F)cc4)c3C=C1CC[C@@]2(O)CC(O)c1ccccn1 (single isomer, unassigned) [Example 2a] | 0.346 | – | 0.237 | 63.5 | 105 (≈ 42.6 µg/mL) | 23.1 | – | – | – | – | – |
| – | 18 (≈ 8.52 µg/mL) | C[C@]12Cc3cnn(-c4ccc(F)cc4)c3C=C1CC[C@@]2(O)CC(O)c1cc(C(F)(F)F)ccn1 (single isomer, unassigned) [Example 5a] | 0.0521 | – | 0.0675 | 89.1 | – | 15.1 | – | – | – | – | – |
| 75.6 | 3 (≈ 1.42 µg/mL) | C[C@]12Cc3cnn(-c4ccc(F)cc4)c3C=C1CC[C@@]2(O)CC(O)c1cc(C(F)(F)F)ccn1 (single isomer, unassigned) [Example 5b] | 0.158 | 18.1 | 0.145 | – | – | – | – | – | – | – | – |
| – | – | C[C@]12Cc3cnn(-c4ccc(F)cc4)c3C=C1CC[C@@]2(O)CC(O)c1ccc(F)cn1 (single isomer, unassigned) [Example 7a] | 0.32 | – | 0.441 | 75.2 | 64 (≈ 27.1 µg/mL) | 18.6 | – | – | – | – | – |
| 83.0 | 35 (≈ 14.8 µg/mL) | C[C@]12Cc3cnn(-c4ccc(F)cc4)c3C=C1CC[C@@]2(O)CC(O)c1ccc(F)cn1 (single isomer, unassigned) [Example 7b] | 0.0855 | 16.6 | 0.248 | – | – | – | – | – | – | – | – |
| 97.5 | 7 (≈ 3.39 µg/mL) | C[C@]12Cc3cnn(-c4ccc(F)cc4)c3C=C1CC[C@@]2(O)CC(O)c1cc(Br)ccn1 (single isomer, unassigned) [Example 10a] | 0.0174 | 8.2 | 0.23 | – | – | – | – | – | – | – | – |
| 64.3 | 2 (≈ 0.969 µg/mL) | C[C@]12Cc3cnn(-c4ccc(F)cc4)c3C=C1CC[C@@]2(O)CC(O)c1cc(Br)ccn1 (single isomer, unassigned) [Example 10b] | 0.08 | 19.8 | 0.048 | – | – | – | – | – | – | – | – |
| – | – | C[C@]12Cc3cnn(-c4ccc(F)cc4)c3C=C1CC[C@@]2(O)C#Cc1ccccc1 [Ex. 1 WO 04/075840 A2, reference compound] | – | – | – | – | – | – | 6.19 | 0.385 | 1.66 | 12.8 | poor |

| Compound | Transrepression U937 Cells GITAR Emax (GR [2]; [8]) [%] | solubility (Solubility at pH 2; [10]) [µM] | EC50 (GR [1]; [3]) [µM] | Transactivation A549 Cells GRAMMER Emax (GR [1]; [4]) [%] | EC50 (GR [2]; [5]) [µM] | Emax (GR [2]; [6]) [%] | solubility (Solubility at pH 2; [7]) [µM] | Emax (GR [1]; [9]) [%] | Emax (GR [1]; A549, Table 4, literature compounds, read-out: GRAMMER EMAX) [%] | EC50 (GR [1]; Table 4, literature compounds, read-out: GRAMMER IP) [µM] | EC50 (GR [2]; Table 4, literature compounds, read-out: GITAR IP) [µM] | Emax (GR [2]; U-937, Table 4, literature compounds, read-out: GITAR EMAX) [%] | solubility (Solubility at pH 2; Table 4, literature compounds) |
| --- | --- | --- | --- | --- | --- | --- | --- | --- | --- | --- | --- | --- | --- |
| Cc1cccnc1C(O)C[C@]1(O)CCC2=Cc3c(cnn3-c3ccc(F)cc3)C[C@@]21C (single isomer, unassigned) [Example 1b] | 58.3 | – | 0.236 | 27.4 | 0.233 | – | – | – | – | – | – | – | – |
| C[C@]12Cc3cnn(-c4ccc(F)cc4)c3C=C1CC[C@@]2(O)CC(O)c1ccccn1 (single isomer, unassigned) [Example 2b] | 68.6 | 192 (≈ 77.9 µg/mL) | 0.255 | 26.8 | 0.129 | – | – | – | – | – | – | – | – |
| C[C@]12Cc3cnn(-c4ccc(F)cc4)c3C=C1CC[C@@]2(O)CC(O)c1cc(Cl)ccn1 (single isomer, unassigned) [Example 8a] | – | <1 | 0.129 | – | 0.0967 | 77.9 | – | 21.4 | – | – | – | – | – |
| C[C@]12Cc3cnn(-c4ccc(F)cc4)c3C=C1CC[C@@]2(O)CC(O)c1cc(Cl)ccn1 (single isomer, unassigned) [Example 8b] | 91.1 | 119 (≈ 52.4 µg/mL) | 0.0267 | 25.2 | 0.0237 | – | – | – | – | – | – | – | – |
